According to patent US8609669B2, “Potassium channel modulators” (AbbVie Inc., priority 2010, dated 2013):

Molecular target: T1, KCNQ 2/3 channels (HEK293 cells stably expressing human KCNQ2 and KCNQ3 subunits) (Homo sapiens, UniProt O43525+O43526)
T1 construct: expressed in transfected cells; host or cells: HEK293
Test: KCNQ2/3 channel activation, thallium flux FLIPR assay (BTC-AM dye)
Assay type: cell-based
Conditions: for Emax: HEK293, maximum response relative to response of retigabine at 10 μM (set at 100%), read-out: Max. %; for EC50: HEK293 cells expressing human KCNQ2 and KCNQ3, FLIPR thallium flux
Procedure: The following example describes the assay that can be used to identify compounds that activate KCNQ 2/3 channels.
HEK293 cells stably expressing human KCNQ2 and KCNQ3 subunits were seeded in 96-well, black-walled, clear-bottomed, poly-D-lysine coated plates (BD Biosciences, Bedford, Mass.) at a density of 1×10^5 cells per well 24 hours before the assay. On the assay day, BTC-AM dye (Invitrogen, Carlsbad, Calif.) was loaded into the cells by replacing the cell culture medium with 100 μL/well of 4 μM dye in DPBS. Dye loading was allowed to proceed for 2 hours at room temperature and then cells were washed twice in 100 μL/well of assay buffer (in mM: 10 HEPES pH 7.3, 5 glucose, 140 Na-gluconate, 2.5 K-gluconate, 3.6 Ca-gluconate, 2 MgSO4, 0.1 Ouabain) to remove unloaded dye. Cells were incubated in 50 μL of assay buffer before loading onto a FLIPR system (Molecular Devices, Sunnyvale, Calif.). Various concentrations of compounds to be assayed were added to the cells in 50 μL of assay buffer and incubated for 4 minutes. The fluorescence signal was initiated by adding 100 μL of assay buffer containing 6 mM TlNO3 and 10 mM K2SO4. Fluors were excited using the 488-nm line of an argon laser and emission was filtered using a 540±30 nm bandpass filter. Fluorescent signals were recorded for 3 minutes. Responses over baseline values were plotted versus concentrations of test compounds to obtain an EC50 value. The maximum response for each test compound was determined relative to the response produced at 10 μM by retigabine. The maximum response of retigabine at 10 μM was set at 100%.

In the case of `Cc1cnc2c(-c3ccc(F)c(C)c3)c(NC(=O)C(C)c3ccccc3)nn2c1` (racemic) [Example 176, (±)-N-[3-(4-fluoro-3-methylphenyl)-6-methylpyrazolo[1,5-a]pyrimidin-2-yl]-2-phenylpropanamide], the Emax is reported as 83% and the EC50 is reported as 0.1 to 0.5 µM.
In the case of `CC(C)(C)c1c(NC(=O)CCc2ccccc2)nn2cccnc12` [Example 129, N-(3-tert-butylpyrazolo[1,5-a]pyrimidin-2-yl)-3-phenylpropanamide], the Emax is reported as 160% and the EC50 is reported as 0.1 to 0.5 µM.
In the case of `CC(C)(C)c1c(NC(=O)CC(C)(C)c2ccccc2)nn2cccnc12` [Example 126, N-(3-tert-butylpyrazolo[1,5-a]pyrimidin-2-yl)-3-methyl-3-phenylbutanamide], the Emax is reported as 133% and the EC50 is reported as 0.1 to 0.5 µM.
For `O=C(CC1CCCC1)Nc1nn2cccnc2c1-c1cccc(C(F)(F)F)c1` [Example 64, 2-cyclopentyl-N-{3-[3-(trifluoromethyl)phenyl]pyrazolo[1,5-a]pyrimidin-2-yl}acetamide], the Emax was 113% and the EC50 was over 10 µM.
Work on `CC(C)(C)c1c(NC(=O)CC2(C)CCc3ccccc32)nn2cccnc12` (racemic) [Example 131, (±)-N-(3-tert-butylpyrazolo[1,5-a]pyrimidin-2-yl)-2-(1-methyl-2,3-dihydro-1H-inden-1-yl)acetamide] yielded an Emax of 97% and an EC50 of 1 to 10 µM.
`COc1ncc(-c2c(NC(=O)Cc3ccc(F)cc3)nn3cccnc23)cn1` [Example 181, 2-(4-fluorophenyl)-N-[3-(2-methoxypyrimidin-5-yl)pyrazolo[1,5-a]pyrimidin-2-yl]acetamide] gave an Emax of 7% and an EC50 of over 10 µM.
`CC(C)(CC(=O)Nc1nn2cccnc2c1-c1cccc(F)c1)c1ccccc1` [Example 128, N-[3-(3-fluorophenyl)pyrazolo[1,5-a]pyrimidin-2-yl]-3-methyl-3-phenylbutanamide] showed an Emax of 96% and an EC50 of 1 to 10 µM.
Compound `Cc1cnc2c(-c3ccc(F)c(C)c3)c(NC(=O)CC(C)(C)c3ccccc3)nn2c1` [Example 149, N-[3-(4-fluoro-3-methylphenyl)-6-methylpyrazolo[1,5-a]pyrimidin-2-yl]-3-methyl-3-phenylbutanamide] has an Emax of 127% and an EC50 of 0.5 to 1 µM.
With `CC(C)(C)Cc1c(NC(=O)CCc2ccccc2)nn2cccnc12` [Example 10, N-[3-(2,2-dimethylpropyl)pyrazolo[1,5-a]pyrimidin-2-yl]-3-phenylpropanamide] the Emax was 156% and the EC50 was 1 to 10 µM.
In the case of `COc1ccc(CC(=O)Nc2nn3c(C)ccnc3c2CC(C)(C)C)cc1` [Example 36, N-[3-(2,2-dimethylpropyl)-7-methylpyrazolo[1,5-a]pyrimidin-2-yl]-2-(4-methoxyphenyl)acetamide], the Emax is reported as 160% and the EC50 is reported as over 10 µM.
With `CC(C)(C)OC(=O)Nc1nn2cccnc2c1-c1ccc(OC(F)(F)F)cc1` [Example 148, tert-butyl {3-[4-(trifluoromethoxy)phenyl]pyrazolo[1,5-a]pyrimidin-2-yl}carbamate] the Emax was 20% and the EC50 was over 10 µM.
With `Cc1ccnc2c(-c3cccc(C(F)(F)F)c3)c(NC(=O)Cc3ccc(F)cc3)nn12` [Example 67, 2-(4-fluorophenyl)-N-{7-methyl-3-[3-(trifluoromethyl)phenyl]pyrazolo[1,5-a]pyrimidin-2-yl}acetamide] the Emax was 117% and the EC50 was 0.1 to 0.5 µM.
`O=C(CCC1CCCC1)Nc1nn2cccnc2c1-c1ccc(C(F)(F)F)c(F)c1` [Example 88, 3-cyclopentyl-N-{3-[3-fluoro-4-(trifluoromethyl)phenyl]pyrazolo[1,5-a]pyrimidin-2-yl}propanamide] gave an Emax of 65% and an EC50 of 0.5 to 1 µM.
`CC(C)(C)c1c(NC(=O)C=C2CCCCC2)nn2cccnc12` [Example 163, N-(3-tert-butylpyrazolo[1,5-a]pyrimidin-2-yl)-2-cyclohexylideneacetamide] was tested, and the Emax was 133% and the EC50 was 1 to 10 µM.
Compound `CC(C)(C)Cc1c(NC(=O)CCC2CCCCC2)nn2cccnc12` [Example 11, 3-cyclohexyl-N-[3-(2,2-dimethylpropyl)pyrazolo[1,5-a]pyrimidin-2-yl]propanamide] has an Emax of 194% and an EC50 of under 0.1 µM.
`CC(C)(C)c1c(NC(=O)CC2CCC3C2C3(Cl)Cl)nn2cccnc12` (stereo not drawn) [Example 169, N-(3-tert-butylpyrazolo[1,5-a]pyrimidin-2-yl)-2-[(cis)-6,6-dichlorobicyclo[3.1.0]hex-2-yl]acetamide] was tested, and the Emax was 134% and the EC50 was 0.1 to 0.5 µM.
`CC(C)(C)CC(=O)Nc1nn2cccnc2c1-c1cccnc1` [Example 110, 3,3-dimethyl-N-[3-(pyridin-3-yl)pyrazolo[1,5-a]pyrimidin-2-yl]butanamide] gave an Emax of 8% and an EC50 of over 10 µM.
`CC(C)(C)c1c(NC(=O)CC23CC4CC(CC(C4)C2)C3)nn2cccnc12` [Example 107, 2-(adamantan-1-yl)-N-(3-tert-butylpyrazolo[1,5-a]pyrimidin-2-yl)acetamide] gave an Emax of 94% and an EC50 of 0.1 to 0.5 µM.
With `O=C(CC12CC3CC(CC(C3)C1)C2)Nc1nn2cccnc2c1-c1ccc(OC(F)(F)F)cc1` [Example 142, 2-(adamantan-1-yl)-N-{3-[4-(trifluoromethoxy)phenyl]pyrazolo[1,5-a]pyrimidin-2-yl}acetamide] the Emax was 152% and the EC50 was 1 to 10 µM.
Compound `CC(C)c1c(NC(=O)CC(C)(C)C)nn2cccnc12` [Example 113, N-(3-isopropylpyrazolo[1,5-a]pyrimidin-2-yl)-3,3-dimethylbutanamide] has an Emax of 18% and an EC50 of 0.1 to 0.5 µM.
`Cc1cnc2c(C(C)(C)C)c(NC(=O)CC3CCCCC3)nn2c1` [Example 180, N-(3-tert-butyl-6-methylpyrazolo[1,5-a]pyrimidin-2-yl)-2-cyclohexylacetamide] was tested, and the Emax was 155% and the EC50 was 0.1 to 0.5 µM.
For `CC(C)(C)c1c(NC(=O)Cc2ccc(F)cc2)nn2cccnc12` [Example 123, N-(3-tert-butylpyrazolo[1,5-a]pyrimidin-2-yl)-2-(4-fluorophenyl)acetamide], the Emax was 142% and the EC50 was 0.1 to 0.5 µM.
`Cc1cnc2c(-c3ccc(C)c(Cl)c3)c(NC(=O)Cc3ccc(F)cc3)nn2c1` [Example 72, N-[3-(3-chloro-4-methylphenyl)-6-methylpyrazolo[1,5-a]pyrimidin-2-yl]-2-(4-fluorophenyl)acetamide] showed an Emax of 247% and an EC50 of 0.1 to 0.5 µM.
Compound `CC(C)(C)CC(=O)Nc1nn2cccnc2c1/C=C/c1ccc(Cl)cc1` [Example 111, N-{3-[(E)-2-(4-chlorophenyl)vinyl]pyrazolo[1,5-a]pyrimidin-2-yl}-3,3-dimethylbutanamide] has an Emax of 59% and an EC50 of over 10 µM.
In the case of `Cc1ccnc2c(-c3cccc(C(F)(F)F)c3)c(NC(=O)CCC3CCCCC3)nn12` [Example 65, 3-cyclohexyl-N-{7-methyl-3-[3-(trifluoromethyl)phenyl]pyrazolo[1,5-a]pyrimidin-2-yl}propanamide], the Emax is reported as 56% and the EC50 is reported as 0.1 to 0.5 µM.
`O=C(Nc1nn2cccnc2c1-c1ccc(Cl)cc1)NC1CCCCC1` [Example 108, 1-[3-(4-chlorophenyl)pyrazolo[1,5-a]pyrimidin-2-yl]-3-cyclohexylurea] gave an Emax of 8% and an EC50 of over 10 µM.
For `O=C(CCC1CCCCC1)Nc1nn2cccnc2c1-c1ccc(Cl)cc1` [Example 157, N-[3-(4-chlorophenyl)pyrazolo[1,5-a]pyrimidin-2-yl]-3-cyclohexylpropanamide], the Emax was 99% and the EC50 was under 0.1 µM.
Compound `Cc1cnc2c(CC(C)(C)C)c(NC(=O)CCC3CCCCC3)nn2c1` [Example 17, 3-cyclohexyl-N-[3-(2,2-dimethylpropyl)-6-methylpyrazolo[1,5-a]pyrimidin-2-yl]propanamide] has an Emax of 267% and an EC50 of under 0.1 µM.
Compound `Cc1cnc2c(-c3ccc(F)c(C)c3)c(NC(=O)CS(=O)(=O)C3CCCC3)nn2c1` [Example 174, 2-(cyclopentylsulfonyl)-N-[3-(4-fluoro-3-methylphenyl)-6-methylpyrazolo[1,5-a]pyrimidin-2-yl]acetamide] has an Emax of 67% and an EC50 of over 10 µM.
`O=C(Cc1cccnc1)Nc1nn2cccnc2c1-c1ccc(Cl)cc1` [Example 101, N-[3-(4-chlorophenyl)pyrazolo[1,5-a]pyrimidin-2-yl]-2-(pyridin-3-yl)acetamide] showed an Emax of 8% and an EC50 of over 10 µM.
In the case of `COC(=O)c1c(NC(=O)CCC2CCCC2)nn2cccnc12` [Example 125, methyl 2-[(3-cyclopentylpropanoyl)amino]pyrazolo[1,5-a]pyrimidine-3-carboxylate], the Emax is reported as 8% and the EC50 is reported as over 10 µM.
In the case of `O=C(CCC1CCCCC1)Nc1nn2cccnc2c1-c1ccc(F)cc1` [Example 24, 3-cyclohexyl-N-[3-(4-fluorophenyl)pyrazolo[1,5-a]pyrimidin-2-yl]propanamide], the Emax is reported as 137% and the EC50 is reported as 0.1 to 0.5 µM.
`COc1cccc(CC(=O)Nc2nn3c(C)cc(C)nc3c2-c2ccc(F)c(C)c2)c1` [Example 32, N-[3-(4-fluoro-3-methylphenyl)-5,7-dimethylpyrazolo[1,5-a]pyrimidin-2-yl]-2-(3-methoxyphenyl)acetamide] showed an Emax of 173% and an EC50 of 0.1 to 0.5 µM.
